Laboratory results: US20090047224A1, “Cosmetic Process for Preventing or Treating the Signs of Skin Ageing or the Orange-Peel Appearance” (L'OREAL, priority 2003, published 2009)
pIC50: −log10 of the molar value. Read-outs that look alike come from different tables or passages of the source.

How the values were obtained:
bovine serum albumin = assay: Anti-glycation effect: inhibition of glycation of bovine serum albumin by D-ribose, measured by fluorescence; assay type: biochemical; settings: for pIC50: BSA + D-ribose 100 mM, 37° C., four weeks; for anti-glycation activity: compared with aminoguanidine
Method: A solution of bovine serum albumin at 5 or 10 mg/ml dissolved in phosphate-buffered saline is incubated at 37° C. for four weeks in the presence or absence of the test compounds at a concentration of between 20 and 160 μg/ml, and in the presence or absence of D-ribose at 100 mM.
After this incubation, dialysis of each sample is performed for 24 hours against MilliQ water.
The glycation of the BSA is evaluated by measuring the fluorescence of each sample at λex 320/λex 380 nm (which corresponds to the formation of the pentosidine glycation product) and at λex 370/λex 440 nm (which corresponds to AGEs).
The inhibition of glycation corresponds to a decrease in fluorescence compared with the glycated control (treated with sugar). The concentration of compound leading to a 50% inhibition of glycation, or IC50, is determined.
Aminoguanidine is used as positive control and tested at various concentrations of between 20 and 160 μg/ml.

[1] = Release of ammonia on heating; assay type: physicochemical; settings: in contrast with aminoguanidine
[2] = tested on: supercoiled circular DNA (plasmid pBR322); assay: Antioxidant effect: DNA-protecting effect under simulated daily UV with ferric ions and riboflavin; assay type: biochemical; settings: 30 minutes simulated daily UV
Method: The DNA-protecting effect of the compounds according to the invention was evaluated by comparison with vitamin C and N-acetylcysteine, which are two well-known antioxidants.
In this test, supercoiled circular DNA (plasmid pBR322, Roche) is placed in solution in the presence of 10 mM phosphate buffer (pH=7) and ferric ions (FeCl3, Sigma) at a concentration of 1 μM and in the presence of riboflavin (Sigma) at a concentration of 0.5 μM. The iron amplifies, via the Fenton reaction, the photo-oxidative impact on the DNA. Its presence also makes it possible to evaluate the potential chelating effect of the N-hydroxy imides according to the invention.
The samples are exposed for 30 minutes to simulated daily UV (attenuated UVB+total UVA) obtained using the Oriel solar simulator equipped with a suitable optical filter and a dichroic mirror. The corresponding spectrum is illustrated in FIG. 3.
The DNA is then subjected to electrophoresis on 1% agarose gel to separate the supercoiled forms, relaxed due to induction of breaks and linearized. After treatment in a gel with the fluorescent intercalating agent ethidium bromide, these three forms may be quantified by densitometry of the agarose gel under UV.

[3] = fluorescence corresponding to AGEs, read-out: λex 370/λex 440 nm IC50
[4] = fluorescence corresponding to formation of the pentosidine glycation product, read-out: λex 320/λex 380 nm IC50

In the case of `N=C(N)NN` [Aminoguanidine, reference compound], the pIC50 (bovine serum albumin; [3]) was 3.15 and the pIC50 (bovine serum albumin; [4]) was 3.70.
In the case of `O=C1CCC(=O)N1O` [Compound 1, N-hydroxysuccinimide], the “releasing ammonia on heating” value [1] was “not releasing ammonia on heating” and the anti-glycation activity (bovine serum albumin) was “more moderate than aminoguanidine”.
With `O=C1C=CC(=O)N1O` [Compound 2, N-hydroxymaleimide] the pIC50 (bovine serum albumin; [3]) was 3.22 and the pIC50 (bovine serum albumin; [4]) was 3.10.
With `O=C1C=C(c2ccccc2)C(=O)N1O` [Compound 3, N-hydroxy-2-phenylmaleimide] the “Score (level of DNA protection)” value ([2]; Concentration 0.1 mM) was “++ (The score (++) means that the active agent reduces the photodegradation of the DNA by at least 50%)”, the pIC50 (bovine serum albumin; [3]) was 4.40 and the pIC50 (bovine serum albumin; [4]) was 4.52.
Work on `O=C1c2ccccc2C(=O)N1O` [Compound 4, N-hydroxyphthalimide] yielded a pIC50 (bovine serum albumin; [3]) of 3.60 and a pIC50 (bovine serum albumin; [4]) of 3.70.
For `O=C1c2cccc3cccc(c23)C(=O)N1O` [Compound 5, N,N-(1,8-naphthaloyl)hydroxylamine], the “Score (level of DNA protection)” value ([2]; Concentration 0.01 mM) was “+ (The score (+) means that the active agent reduces the photodegradation of the DNA by at least 20%)”, the pIC50 (bovine serum albumin; [3]) was 4.35 and the pIC50 (bovine serum albumin; [4]) was 6.10.
With `O=C1CCCC(=O)N1O` [Compound 6, N-hydroxy-piperidine-2,6-dione] the anti-glycation activity (bovine serum albumin) was “more moderate than aminoguanidine”.
In the case of `CC(=O)N[C@@H](CS)C(=O)O` [N-Acetylcysteine, reference compound], the “Score (level of DNA protection)” value ([2]; Concentration 1 mM) was “++ (The score (++) means that the active agent reduces the photodegradation of the DNA by at least 50%)”.
In the case of `O=C1O[C@H]([C@@H](O)CO)C(O)=C1O` [Vitamin C, reference compound], the “Score (level of DNA protection)” value ([2]; Concentration 1 mM) was “+ (The score (+) means that the active agent reduces the photodegradation of the DNA by at least 20%)”.
